Experiment [1] deals with Metabotropic glutamate receptor 4 (Rattus norvegicus, UniProt P31423). Put plainly: Positive allosteric modulator activity at rat mGlu4 receptor expressed in HEK293 cells assessed as effect on L-AP4-induced inositol phosphate accumulation incubated for 30 mins by florescence assay. It counts as functional, cell-based.
For experiment [2], the target named is Metabotropic glutamate receptor 5 (Rattus norvegicus) (UniProt P31424). In words: Potency index, ratio of IC50 for MPEP to IC50 for test compound for negative allosteric modulator activity at rat mGlu5 receptor expressed in HEK293 cells. It is filed as cell-based.
Sequence of Metabotropic glutamate receptor 5 (Rattus norvegicus) (P31424 21-1203 limits assumed): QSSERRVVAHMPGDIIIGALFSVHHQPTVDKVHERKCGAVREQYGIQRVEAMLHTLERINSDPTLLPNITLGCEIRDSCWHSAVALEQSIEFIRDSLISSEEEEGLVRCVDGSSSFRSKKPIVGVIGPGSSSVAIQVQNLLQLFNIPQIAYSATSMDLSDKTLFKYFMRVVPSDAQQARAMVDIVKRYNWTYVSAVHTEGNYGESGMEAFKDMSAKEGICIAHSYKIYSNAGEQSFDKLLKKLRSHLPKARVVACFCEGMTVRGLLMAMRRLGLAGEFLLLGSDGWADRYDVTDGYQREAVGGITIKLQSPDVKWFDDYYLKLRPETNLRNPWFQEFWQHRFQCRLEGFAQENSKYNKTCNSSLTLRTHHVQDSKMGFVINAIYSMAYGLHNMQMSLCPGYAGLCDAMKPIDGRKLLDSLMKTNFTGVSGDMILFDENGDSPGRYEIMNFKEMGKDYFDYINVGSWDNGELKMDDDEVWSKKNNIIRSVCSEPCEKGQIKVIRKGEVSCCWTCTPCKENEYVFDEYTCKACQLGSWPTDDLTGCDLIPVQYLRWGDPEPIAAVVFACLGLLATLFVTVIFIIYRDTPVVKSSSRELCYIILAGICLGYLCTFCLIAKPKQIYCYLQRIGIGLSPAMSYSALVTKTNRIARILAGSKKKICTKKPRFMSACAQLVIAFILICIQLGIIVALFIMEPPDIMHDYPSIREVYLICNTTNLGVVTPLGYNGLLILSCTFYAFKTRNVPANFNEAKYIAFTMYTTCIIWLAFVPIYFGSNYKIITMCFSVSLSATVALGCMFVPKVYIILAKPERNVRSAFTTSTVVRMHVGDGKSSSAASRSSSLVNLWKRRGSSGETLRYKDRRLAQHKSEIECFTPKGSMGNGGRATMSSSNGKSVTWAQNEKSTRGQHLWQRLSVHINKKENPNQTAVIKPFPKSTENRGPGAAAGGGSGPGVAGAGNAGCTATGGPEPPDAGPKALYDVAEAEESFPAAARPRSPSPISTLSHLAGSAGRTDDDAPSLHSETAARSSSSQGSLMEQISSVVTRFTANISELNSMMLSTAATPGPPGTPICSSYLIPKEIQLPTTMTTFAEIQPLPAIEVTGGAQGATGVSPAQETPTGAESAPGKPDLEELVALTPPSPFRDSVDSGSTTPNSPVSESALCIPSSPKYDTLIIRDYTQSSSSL
Experiment [3] deals with Metabotropic glutamate receptor 5 (Rattus norvegicus, UniProt P31424). Put plainly: Negative allosteric modulator activity at rat mGlu5 receptor expressed in HEK293 cells assessed as effect on quisqualate-induced inositol phosphate accumulation incubated for 30 mins by florescence assay. It is filed as functional, cell-based.
Sequence of Metabotropic glutamate receptor 5 (P31424 whole entry): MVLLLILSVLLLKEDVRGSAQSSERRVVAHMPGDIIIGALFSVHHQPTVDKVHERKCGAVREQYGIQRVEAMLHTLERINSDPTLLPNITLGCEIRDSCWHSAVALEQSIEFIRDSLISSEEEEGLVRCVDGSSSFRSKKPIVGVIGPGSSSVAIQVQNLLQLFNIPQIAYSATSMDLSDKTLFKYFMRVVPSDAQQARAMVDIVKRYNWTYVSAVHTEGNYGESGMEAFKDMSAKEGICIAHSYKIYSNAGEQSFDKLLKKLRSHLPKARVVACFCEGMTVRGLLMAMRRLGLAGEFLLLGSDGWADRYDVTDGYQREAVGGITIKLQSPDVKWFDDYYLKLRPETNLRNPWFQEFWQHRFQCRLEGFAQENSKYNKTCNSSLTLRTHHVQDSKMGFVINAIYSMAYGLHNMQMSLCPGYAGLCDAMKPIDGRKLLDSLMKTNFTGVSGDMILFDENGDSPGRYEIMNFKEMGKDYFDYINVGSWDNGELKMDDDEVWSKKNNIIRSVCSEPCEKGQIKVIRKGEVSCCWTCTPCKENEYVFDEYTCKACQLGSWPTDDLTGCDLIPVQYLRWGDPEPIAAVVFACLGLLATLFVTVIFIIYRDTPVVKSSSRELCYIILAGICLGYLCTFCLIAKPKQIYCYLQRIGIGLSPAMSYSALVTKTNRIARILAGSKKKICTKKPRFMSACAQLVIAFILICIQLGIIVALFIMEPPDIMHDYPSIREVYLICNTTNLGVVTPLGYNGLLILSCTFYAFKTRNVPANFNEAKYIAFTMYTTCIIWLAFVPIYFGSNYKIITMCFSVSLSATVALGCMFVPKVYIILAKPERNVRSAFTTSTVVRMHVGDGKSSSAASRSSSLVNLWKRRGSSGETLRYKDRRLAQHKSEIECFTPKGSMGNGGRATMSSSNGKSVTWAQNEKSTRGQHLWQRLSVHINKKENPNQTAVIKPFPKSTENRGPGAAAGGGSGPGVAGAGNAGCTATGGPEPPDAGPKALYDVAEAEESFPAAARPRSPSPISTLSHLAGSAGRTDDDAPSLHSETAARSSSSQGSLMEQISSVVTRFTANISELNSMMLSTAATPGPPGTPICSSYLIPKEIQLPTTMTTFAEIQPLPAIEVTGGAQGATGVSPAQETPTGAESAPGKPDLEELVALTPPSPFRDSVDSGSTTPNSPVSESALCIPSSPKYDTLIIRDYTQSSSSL
In experiment [4] the target is Metabotropic glutamate receptor 4 (Rattus norvegicus) (UniProt P31423). To be noted: HEK293.
Sequence of Metabotropic glutamate receptor 4 (Rattus norvegicus) (P31423 whole entry): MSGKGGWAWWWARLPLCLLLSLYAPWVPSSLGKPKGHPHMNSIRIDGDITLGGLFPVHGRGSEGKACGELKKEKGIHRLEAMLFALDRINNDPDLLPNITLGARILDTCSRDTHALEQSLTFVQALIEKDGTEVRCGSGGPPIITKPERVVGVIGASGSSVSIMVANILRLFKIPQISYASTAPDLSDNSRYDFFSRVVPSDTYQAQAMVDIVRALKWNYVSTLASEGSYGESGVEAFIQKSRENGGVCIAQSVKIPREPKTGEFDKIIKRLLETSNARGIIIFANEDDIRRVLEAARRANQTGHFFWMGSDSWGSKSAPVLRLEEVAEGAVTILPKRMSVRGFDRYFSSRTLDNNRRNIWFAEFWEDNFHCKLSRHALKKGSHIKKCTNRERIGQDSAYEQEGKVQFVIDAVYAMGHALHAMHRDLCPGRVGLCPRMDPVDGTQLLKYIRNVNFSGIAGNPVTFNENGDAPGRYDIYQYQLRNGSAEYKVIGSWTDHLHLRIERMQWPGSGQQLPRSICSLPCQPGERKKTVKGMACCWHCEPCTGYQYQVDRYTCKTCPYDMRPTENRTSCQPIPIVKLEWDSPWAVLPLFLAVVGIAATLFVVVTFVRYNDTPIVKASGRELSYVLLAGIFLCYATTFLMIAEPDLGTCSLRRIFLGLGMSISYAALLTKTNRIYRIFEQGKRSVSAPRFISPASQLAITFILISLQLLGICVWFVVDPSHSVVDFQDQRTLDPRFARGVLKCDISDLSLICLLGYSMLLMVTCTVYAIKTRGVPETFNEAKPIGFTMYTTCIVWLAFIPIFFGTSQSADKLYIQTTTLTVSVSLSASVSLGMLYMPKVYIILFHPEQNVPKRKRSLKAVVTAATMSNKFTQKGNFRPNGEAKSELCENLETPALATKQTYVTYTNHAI
Description: Agonist activity at rat mGlu4 receptor expressed in HEK293 cells by inositol phosphate accumulation assay
Experiment [5] has as its target Metabotropic glutamate receptor 5 (Rattus norvegicus) (UniProt P31424). Conditions: HEK293; call rule not given here.

The text below walks through data of ChEMBL document CHEMBL3596138, “A double effect molecular switch leads to a novel potent negative allosteric modulator of metabotropic glutamate receptor 5” (Medchemcomm, 2014).

The term EC50 denotes the concentration at which the effect is half-maximal. In general, IC50 refers to the point on the concentration scale where inhibition reaches its midpoint. A word on the EC10: it is the point of the concentration-response curve where the effect stands at 10%. Higher therefore signals a need for much substance. In general, EC80 refers to the concentration at which the effect reaches the 80% level. High values mean weaker potency, low ones greater potency.

Sequence of Metabotropic glutamate receptor 4 (P31423 whole entry): as above

On to `COc1cc(C#Cc2ccccn2)ccc1NC(=O)c1ccccc1Cl`, for which the EC50 in experiment [1] was above 30000 nM. Moreover, the Ratio IC50 in experiment [2] stood at 4. Also, in experiment [3] (read-out: IC50), the half-inhibitory concentration (IC50) is 24 nM. On to `COc1cc(NC(=O)c2ccccn2)ccc1NC(=O)c1ccccc1Cl`, for which the EC50 in experiment [1] is 104 nM. For the same molecule, the concentration for half-maximal inhibition (IC50) in experiment [3] (read-out: IC50) was above 30000 nM. Take `N[C@@H](CCP(=O)(O)O)C(=O)O`: in experiment [4], it took 10 nM to reach the 10% level (EC10). On to `N[C@@H](Cn1oc(=O)[nH]c1=O)C(=O)O`, for which, in experiment [5], it took 100 nM to reach the 80% level (EC80).

In the case of `COc1cc(NC(=O)c2ccccn2)ccc1C#Cc1ccccc1Cl`, in experiment [1], the EC50 is 4100 nM. Further, the 50% inhibitory concentration (IC50) entry in experiment [3] (hek293) is on record as “Not Active”.
